Entries after “also recorded” stand apart in the source; their conditions may differ. Like-named read-outs stand apart in the source and are kept apart here.

For one data set, the system named is PG formation. Particulars: cited from earlier work.
For data set [1] the following is noted: cited from earlier work.
Another data set concerns NZB/W mouse. The experiment in a line: NZB/W mouse, animal model for Sjogren's syndrome. The format is in vivo.
Another data set relates to Sjogren's syndrome. Particulars: vitamin C 7.5 g/day for a year; person.
For another data set, the system named is opiate receptor. Particulars: cited from earlier work.
Data set [2] deals with conversion of DGLA to 1 series PGs (human platelets). As to the kind of experiment: tissue or blood. Format: cell-based. Particulars: for effect on formation of 1 series PGs from DGLA: human platelets; for activity at 0.018 µg/mL / activity at 18 µg/mL: Homo sapiens, Platelet; for behaviour of treated normal platelets (PGE1 from DGLA): normal platelets compared with schizophrenic platelets.
Method: (§1) The method is given in detail later herein but briefly human platelets are incubated with radioactive DGLA or arachidonic acid. The PGs produced during incubation are extracted by conventional means and separated by thin layer chromatography, and the amount of radioactivity appearing in each PG or related substance is counted. PGE 1, PGF 1α and thromboxane B1 from DGLA, and PGE 2, PGF 2α and thromboxane B2 from AA are estimated.
(§2) One day expired (2 days old) human platelets were obtained and used within 48 hours of expiration. One unit was centrifuged at 1000 g for 15 minutes and the supernatent drawn off. The platelet pellet was resuspended in Tris-NaCl-EDTA buffer, made up of 0.15 M NaCl, 0.15 M Tris HCl at pH 7.4 and 0.077 M NaEDTA (90:8:2 v/v/v). The platelets were recentrifuged, the supernatant removed and the pellet resuspended in Krebs-Henseleit buffer (without calcium) at pH 7.4. The washed platelets suspension contained about 1-2% red blood cells. All glassware used in the preparation of the platelets was siliconized.
Four equal sized 1 ml aliquots of the platelet suspension, containing 10^9 platelets/ml were incubated with e.g. 0.5 μCi ^14 C-DGLA for five minutes. At the beginning of the incubation the material under test was added to the suspensions. The reaction was stopped after five minutes by addition of 1/10 volume of 10% formic acid. The suspension was then extracted three times with ethyl acetate and the fractions pooled and dried under vacuum. The extract was then taken up with 5 ml chloroform/methanol (2/1, v/v). Recovery of radioactive material in the extract was checked by taking 50 μl of the chloroform/methanol and counting by liquid scintillation.
The chloroform/methanol extract was then reduced in volume to 1 ml under dry prepurified nitrogen. Thin layer chromatography was carried out on 500 μg precoated, prescored silica gel G Uniplates (Analtech). Plates were activated by heating to 100° C. for 1 hour immediately prior to use. The solvent system was chloroform:methanol:acetic acid:water (90:8:1:0:8). Reference compounds (PGsE1 and F1α and thromboxane B1) were run at the same time and visualized by phosphomolybdic acid spray followed by brief heating. The bands on the plates corresponding to the reference PGE1, PFG1α and TXB1 were scraped off and eluted with 20 ml acetone. Each elution was then evaporated to dryness and counted by liquid scintillation (Beckman 100 LS counter).
Three experiments were performed with DGLA and three with AA.

Data set [3] relates to conversion of AA to 2 series PGs (human platelets). Format: cell-based.
Method: as §1, §2
Four equal sized 1 ml aliquots of the platelet suspension, containing 10^9 platelets/ml were incubated with e.g. 0.5 μCi ^14 C-DGLA for five minutes. […]
The chloroform/methanol extract was then reduced in volume to 1 ml under dry prepurified nitrogen. […] Each elution was then evaporated to dryness and counted by liquid scintillation (Beckman 100 LS counter). […]
[4] abbreviates: read-out: PGE1 formation (precursor DGLA), percentage of control counts.
[5] abbreviates: read-out: TXB1 formation (precursor DGLA), percentage of control counts.

`CCO` [Ethyl alcohol, ethyl alcohol]: the “effect on formation of thromboxane B2” value with PG formation (extremely high levels of ethanol, conversion of AA) is on record as “can block the formation of thromboxane B2”. Besides, the “concentration of alcohol in human plasma at which signs of mild intoxication first appear” value in data set [1] (human plasma) is given as 20-30 mg %. In data set [1] (in vivo), the “concentration which produces "blind drunkenness"” value is on record as 300 mg %.

Consider `CCCCC[C@H](O)/C=C/[C@H]1[C@H](O)CC(=O)[C@@H]1CCCCCCC(=O)O` [PGE1], for which the “effect on immunological abnormalities of the strain” value in the data set on NZB/W mouse is listed as “can correct many of the immunological abnormalities of the strain”.

For `O=C1O[C@H]([C@@H](O)CO)C(O)=C1O` [Vitamin C, ascorbic acid], in the data set with PG formation (high concentrations of vitamin C, reports in the literature), the “effect on PG formation” value was “both enhancing and reducing PG formation”. In addition, in the data set on Sjogren's syndrome, the “effect on well-being, dry eyes and mouth” value was “subjective sense of well-being and some slight improvement in the dry eyes and mouth”.

With `CN1CC[C@@]23CCCC[C@@H]2[C@@H]1Cc1ccc(O)cc13` [d-levorphanol], the “binding to and activation of the opiate receptor” value in the data set on opiate receptor is recorded as “does not”; in the data set on opiate receptor (listed as d-isomer of levorphanol), “devoid of opiate activity”. Besides, the “effect on conversion of DGLA to PGE1” value in data set [2] (d-isomer of levorphanol) was “no such effect”. Further, in data set [2], the “effect on formation of 1 series PGs from DGLA” value (“effect on formation … from DGLA” below) is “not shown by d-levorphanol”.

For the compound `CN1CC[C@]23CCCC[C@H]2[C@H]1Cc1ccc(O)cc13` [l-levorphanol], the “binding to and activation of the opiate receptor” value in the data set on opiate receptor was “binds to and activates the opiate receptor”. Moreover, in data set [2] (setting [4]), the activity at 0.018 µg/mL is 23% and the activity at 18 µg/mL came out at 72%. For the same compound, in data set [2] (setting [5]), the activity at 0.018 µg/mL is 20% and the activity at 18 µg/mL turned out to be 76%. In data set [2], the “effect on formation … from DGLA” value is given as “reduced formation of 1-series PGs; also recorded: able to block the formation of 1 series PGs from DGLA” and the “behaviour of treated normal platelets (PGE1 from DGLA)” value is “behave like schizophrenic platelets”. Also, the “effect on conversion of DGLA to PGE1” value in data set [2] (l-levorphanol 100 μg/ml) is listed as “inhibiting conversion of DGLA to PGE1”. Moreover, the “imitation of schizophrenic defect of conversion of DGLA to PGE1 in normal platelets” value in data set [2] (normal platelets incubated with l-levorphanol) was “can be limited in normal platelets by incubation with l-levorphanol”. Besides, the “effect on formation of 2 series PGs from AA” value in data set [3] was “no effect on production of 2-series PGs from AA; also recorded: without blocking the formation of 2 series PGs from AA”.

As for `CCCCC/C=C\C/C=C\C/C=C\CCCCC(=O)O` [γ-linolenic acid], the “effect on immunological abnormalities of the strain” value with NZB/W mouse was “can correct many of the immunological abnormalities of the strain”.

For the compound “β-endorphin: natural opioid (YGGFMTSEKSQTPLVTLFKNAIIKNAYKKGE; Beta-endorphin; UniProt P01189 237-267, looked up)”, in data set [2], the “effect on formation … from DGLA” value is “effect similar to levorphanol” and the “behaviour of treated normal platelets (PGE1 from DGLA)” value is recorded as “behave like schizophrenic platelets”.

Values taken from patent USRE31836E, “Pharmaceutical and dietary composition” (priority 1984, dated 1985).
